The molecules below were run against T1, human Cav2.2α (α1B) subunit, along with the human β3 and α2δ1 auxiliary subunits (Homo sapiens, UniProt Q00975) (assay: hCav2.2 assay (IonWorks planar array electrophysiology)). Settings: HEK293 cells; inhibition of current elicited by the 1st depolarising pulse by 50%; read-out: mean pIC50 value (tonic pIC50) (converted).
T1 construct: expressed in transfected cells; plasmids pCIN5-hCav2.2, pCIH-hCav β3, pCIP-α2δ1
Format: cell-based
Experimental: Compounds of the invention may be tested for in vitro biological activity in the hCav2.2 assay in accordance with the following studies:
Stable cell lines expressing the human Cav2.2α (α1B) subunit, along with the human β3 and α2δ1 auxiliary subunits were created following sequential transfection and selection of human embryonic kidney (HEK293) cells. HEK293 cells were cultured in Dulbecco's modified Eagles media/F12 media (Invitrogen, Cat #041-95750V) containing 10% fetal bovine serum, with added L-glutamine (2 mM; Invitrogen, Cat #25030-024) and non-essential amino acids (5%; Invitrogen, Cat #11140-035). Initially HEK293 cells were transfected with two plasmid vectors for expression of the hCav2.2α subunit (pCIN5-hCav2.2 which carries a neomycin resistance marker) and the hCav β3 subunit (pCIH-hCav β3 which carries a hygromycin resistance marker). Clonal cell lines were isolated following selection in media supplemented with 0.4 mg ml^−1 Geneticin G418 (Invitrogen, Cat #10131-027) and 0.1 mg ml^−1 hygromycin (Invitrogen, Cat #10687-010). These clonal cell lines were assessed for Cav2.2α/β3-mediated current expression using the IonWorks planar array electrophysiology technology (described below). A clonal line was identified that gave a reasonable level of functional Cav2.2α/β3 current expression. This cell line was transfected with a plasmid vector for expression of the human α2δ1 subunit (pCIP-α2δ1 which carries a puromycin resistance marker) and clonal cell lines isolated following selection in media containing 0.62 μg ml^−1 puromycin (Sigma, Cat # P-7255), in addition to 0.4 mg ml^−1 Geneticin G418 and 0.1 mg ml^−1 hygromycin. Several cell lines were identified that gave robust levels of Cav2.2α/β3/α2δ1-mediated current expression and one of these was selected for compound profiling. Expression of all three subunits within this cell line was continuously maintained by the inclusion of G418 (0.4 mg ml^−1), hygromycin (0.1 mg ml^−1) and puromycin (0.62 μg ml^−1). Cells were maintained at 37° C. in a humidified environment containing 5% CO2 in air. Cells were liberated from the T175 culture flasks for passage and harvesting using TrpLE (Invitrogen, Cat #12604-013).
Cells were grown to 30-60% confluence in T175 flasks and maintained at 30° C. for 24 hrs prior to recording. Cells were lifted by removing the growth media, washing with Ca^2+free PBS (Invitrogen, Cat #14190-094) and incubating with 3 ml of warmed (37° C.) TrpLE (Invitrogen, Cat #12604-013) for 6 minutes. Lifted cells were suspended in 10 ml of extracellular buffer. Cell suspension was then placed into a 15 ml tube and centrifuged for 2 minutes at 700 rpm. After centrifugation, the supernatant was removed and the cell pellet was resuspended in 4.5 ml of extracellular solution.
Currents were recorded at room temperature (21-23° C.) using the IonWorks planar array electrophysiology technology (Molecular Devices Corp.). Stimulation protocols and data acquisition were carried out using a microcomputer (Dell Pentium 4). In order to determine planar electrode hole resistances (Rp), a 10 mV, 160 ms potential difference was applied across each hole. These measurements were performed before cell addition. After cell addition a seal test was performed prior to antibiotic (amphotericin) circulation to achieve intracellular access. Leak subtraction was conducted in all experiments by applying a 160 ms hyperpolarizing (10 mV) prepulse 200 ms before the test pulses to measure leak conductance. Test pulses stepping from the holding potential (VH) of −90 mV to +10 mV were applied for 20 ms and repeated 10 times at a frequency of 10 Hz. In all experiments, the test pulse protocol was performed in the absence (pre-read) and presence (post-read) of a compound. Pre- and post-reads were separated by a compound addition followed by a 3-3.5 min incubation.
The intracellular solution contained the following (in mM): K-gluconate 120, KCl 20 mM, MgCl2 5, EGTA 5, HEPES 10, adjusted to pH 7.3. […]

T1 sequence (Q00975 whole entry): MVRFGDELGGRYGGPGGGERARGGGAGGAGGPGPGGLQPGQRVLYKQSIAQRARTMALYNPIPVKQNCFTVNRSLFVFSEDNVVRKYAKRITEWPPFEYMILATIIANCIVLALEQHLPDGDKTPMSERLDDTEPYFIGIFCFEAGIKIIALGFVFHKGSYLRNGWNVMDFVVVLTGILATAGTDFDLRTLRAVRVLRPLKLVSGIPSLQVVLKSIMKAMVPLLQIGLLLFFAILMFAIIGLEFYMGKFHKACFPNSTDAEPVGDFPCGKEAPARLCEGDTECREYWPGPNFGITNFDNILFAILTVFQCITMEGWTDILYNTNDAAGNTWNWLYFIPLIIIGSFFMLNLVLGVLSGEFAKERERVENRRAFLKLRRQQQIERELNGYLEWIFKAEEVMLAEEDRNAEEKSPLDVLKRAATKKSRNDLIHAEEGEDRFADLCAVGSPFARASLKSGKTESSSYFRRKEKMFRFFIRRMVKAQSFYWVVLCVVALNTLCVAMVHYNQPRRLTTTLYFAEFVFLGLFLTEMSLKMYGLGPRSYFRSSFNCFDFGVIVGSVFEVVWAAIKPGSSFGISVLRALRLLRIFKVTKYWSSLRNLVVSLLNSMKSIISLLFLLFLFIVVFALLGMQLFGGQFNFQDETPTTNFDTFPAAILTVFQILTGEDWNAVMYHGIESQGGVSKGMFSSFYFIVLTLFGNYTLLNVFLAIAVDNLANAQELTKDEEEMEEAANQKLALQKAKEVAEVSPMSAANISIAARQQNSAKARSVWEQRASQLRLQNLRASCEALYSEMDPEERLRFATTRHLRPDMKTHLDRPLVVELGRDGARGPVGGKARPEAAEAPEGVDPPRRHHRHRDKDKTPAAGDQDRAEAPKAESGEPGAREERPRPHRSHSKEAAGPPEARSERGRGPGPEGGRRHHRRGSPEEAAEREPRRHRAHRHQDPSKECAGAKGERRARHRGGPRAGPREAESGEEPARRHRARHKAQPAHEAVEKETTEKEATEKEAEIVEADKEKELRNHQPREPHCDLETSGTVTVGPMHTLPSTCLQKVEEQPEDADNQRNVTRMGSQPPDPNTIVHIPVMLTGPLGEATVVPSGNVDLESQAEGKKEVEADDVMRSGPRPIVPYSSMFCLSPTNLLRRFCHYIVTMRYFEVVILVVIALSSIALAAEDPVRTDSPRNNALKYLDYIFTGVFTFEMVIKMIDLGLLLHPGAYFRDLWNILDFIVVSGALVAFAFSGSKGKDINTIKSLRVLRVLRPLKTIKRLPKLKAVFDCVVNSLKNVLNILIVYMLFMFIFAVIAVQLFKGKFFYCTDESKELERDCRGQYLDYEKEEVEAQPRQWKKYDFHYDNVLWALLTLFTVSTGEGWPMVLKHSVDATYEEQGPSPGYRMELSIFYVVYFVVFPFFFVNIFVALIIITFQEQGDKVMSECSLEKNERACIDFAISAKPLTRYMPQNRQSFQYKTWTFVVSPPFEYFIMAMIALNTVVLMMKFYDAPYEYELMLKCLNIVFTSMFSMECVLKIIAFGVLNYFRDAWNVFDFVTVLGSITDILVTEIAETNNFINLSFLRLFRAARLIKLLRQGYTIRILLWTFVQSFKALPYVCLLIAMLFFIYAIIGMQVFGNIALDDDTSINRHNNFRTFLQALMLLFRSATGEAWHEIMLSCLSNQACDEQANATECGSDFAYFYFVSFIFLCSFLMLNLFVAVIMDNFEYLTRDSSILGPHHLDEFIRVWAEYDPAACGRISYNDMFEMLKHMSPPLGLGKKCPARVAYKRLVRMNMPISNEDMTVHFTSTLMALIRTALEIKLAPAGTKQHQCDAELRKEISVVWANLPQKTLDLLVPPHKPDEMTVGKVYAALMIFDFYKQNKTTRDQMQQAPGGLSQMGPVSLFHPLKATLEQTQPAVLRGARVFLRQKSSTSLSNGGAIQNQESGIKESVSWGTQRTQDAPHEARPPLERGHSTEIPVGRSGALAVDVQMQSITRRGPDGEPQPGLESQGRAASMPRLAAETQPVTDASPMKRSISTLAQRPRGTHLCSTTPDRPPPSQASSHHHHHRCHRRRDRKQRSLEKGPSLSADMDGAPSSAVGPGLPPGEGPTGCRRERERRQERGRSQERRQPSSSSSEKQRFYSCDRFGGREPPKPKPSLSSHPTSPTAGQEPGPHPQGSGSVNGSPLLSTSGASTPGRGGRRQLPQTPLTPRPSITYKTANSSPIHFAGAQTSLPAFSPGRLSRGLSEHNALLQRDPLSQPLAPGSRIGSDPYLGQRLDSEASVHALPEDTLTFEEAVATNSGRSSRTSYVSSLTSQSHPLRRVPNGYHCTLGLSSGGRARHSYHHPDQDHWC
T1 sequence (P54284 whole entry partner): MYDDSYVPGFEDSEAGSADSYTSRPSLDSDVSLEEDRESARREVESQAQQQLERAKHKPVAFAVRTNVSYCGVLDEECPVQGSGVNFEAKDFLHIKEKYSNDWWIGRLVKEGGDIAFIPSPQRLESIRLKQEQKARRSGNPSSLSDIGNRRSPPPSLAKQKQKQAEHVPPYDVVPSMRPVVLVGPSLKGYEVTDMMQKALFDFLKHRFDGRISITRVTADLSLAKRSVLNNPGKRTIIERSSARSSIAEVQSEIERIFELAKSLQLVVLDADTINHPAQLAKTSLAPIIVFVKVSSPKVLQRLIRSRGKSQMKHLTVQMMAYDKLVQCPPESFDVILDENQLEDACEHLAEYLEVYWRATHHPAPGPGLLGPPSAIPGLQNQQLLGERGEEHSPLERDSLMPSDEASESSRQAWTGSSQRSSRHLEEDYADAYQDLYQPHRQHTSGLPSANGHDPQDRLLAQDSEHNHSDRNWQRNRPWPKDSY
T1 sequence (P54289 25-946 partner limits assumed): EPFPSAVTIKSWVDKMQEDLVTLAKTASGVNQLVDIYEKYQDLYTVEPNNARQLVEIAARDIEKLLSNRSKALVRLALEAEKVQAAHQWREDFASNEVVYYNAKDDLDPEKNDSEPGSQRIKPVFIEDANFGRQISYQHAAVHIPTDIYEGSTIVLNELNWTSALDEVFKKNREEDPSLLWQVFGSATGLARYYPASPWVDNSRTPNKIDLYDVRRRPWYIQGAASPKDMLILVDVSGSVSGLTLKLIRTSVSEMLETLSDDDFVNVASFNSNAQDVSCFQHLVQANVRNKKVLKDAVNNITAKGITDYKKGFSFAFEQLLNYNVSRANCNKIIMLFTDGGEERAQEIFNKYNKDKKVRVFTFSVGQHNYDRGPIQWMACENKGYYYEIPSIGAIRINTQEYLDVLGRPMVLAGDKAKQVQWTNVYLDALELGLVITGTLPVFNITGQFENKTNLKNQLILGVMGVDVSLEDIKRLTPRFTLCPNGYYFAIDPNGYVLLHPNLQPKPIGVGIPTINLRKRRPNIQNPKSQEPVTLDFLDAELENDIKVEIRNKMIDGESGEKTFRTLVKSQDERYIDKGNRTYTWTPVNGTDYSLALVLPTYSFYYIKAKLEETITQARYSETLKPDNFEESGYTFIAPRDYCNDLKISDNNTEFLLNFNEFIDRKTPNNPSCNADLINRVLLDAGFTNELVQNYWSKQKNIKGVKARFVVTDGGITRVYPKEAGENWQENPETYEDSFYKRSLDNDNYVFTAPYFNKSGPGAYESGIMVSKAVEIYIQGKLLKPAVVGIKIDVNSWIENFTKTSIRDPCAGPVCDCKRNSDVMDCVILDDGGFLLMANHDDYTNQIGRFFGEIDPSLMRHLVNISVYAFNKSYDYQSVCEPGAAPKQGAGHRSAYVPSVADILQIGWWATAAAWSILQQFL
T1 sequence (P54289 947-1103 partner limits assumed): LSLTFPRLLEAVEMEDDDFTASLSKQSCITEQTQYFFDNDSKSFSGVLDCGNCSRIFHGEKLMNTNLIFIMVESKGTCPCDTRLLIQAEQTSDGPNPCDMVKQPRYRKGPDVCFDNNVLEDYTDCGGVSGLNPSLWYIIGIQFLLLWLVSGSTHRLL

Row | IC50 [µM] | Structure (SMILES)
1 | ≥ 31.6 | O=C1NCCC12CCCN(S(=O)(=O)c1ccc(C(F)(F)F)cc1Br)C2 (stereo not drawn) [Compound 21, 7-{[2-Bromo-4-(trifluoromethyl)phenyl]sulfonyl}-2,7-diazaspiro[4.5]decan-1-one]
2 | ≥ 31.6 | O=C1NCCCC12CCCN(S(=O)(=O)c1ccc(OC(F)(F)F)cc1)C2 (stereo not drawn) [Compound 13, 8-({4-[(Trifluoromethyl)oxy]phenyl}sulfonyl)-2,8-diazaspiro[5.5]undecan-1-one]
3 | ≥ 31.6 | O=C1NCCC12CCCN(S(=O)(=O)c1cccc(OC(F)(F)F)c1)C2 (stereo not drawn) [Compound 15, 7-({3-[(Trifluoromethyl)oxy]phenyl}sulfonyl)-2,7-diazaspiro[4.5]decan-1-one]
4 | ≥ 31.6 | O=C1OCCC12CCCN(S(=O)(=O)c1ccc(C(F)(F)F)cc1)C2 (stereo not drawn) [Compound 28, 7-{[4-(Trifluoromethyl)phenyl]sulfonyl}-2-oxa-7-azaspiro[4.5]decan-1-one]
5 | ≥ 31.6 | O=C1OCCC12CCCN(S(=O)(=O)c1ccc(OC(F)(F)F)cc1)C2 (stereo not drawn) [Compound 29, 7-({4-[(Trifluoromethyl)oxy]phenyl}sulfonyl)-2-oxa-7-azaspiro[4.5]decan-1-one]
6 | ≥ 31.6 | CCOc1ccc(S(=O)(=O)N2CCCC3(CCCN(C)C3=O)C2)cc1 (stereo not drawn) [Compound 34, 8-{[4-(Ethyloxy)phenyl]sulfonyl}-2-methyl-2,8-diazaspiro[5.5]undecan-1-one]
7 | ≥ 31.6 | O=C1NCCCC12CCCN(S(=O)(=O)c1ccc(C(F)(F)F)cc1)C2 (stereo not drawn) [Compound 10, 8-{[4-(Trifluoromethyl)phenyl]sulfonyl}-2,8-diazaspiro[5.5]undecan-1-one]
8 | ≥ 31.6 | O=C1NCCC12CCCN(S(=O)(=O)c1cc(C(F)(F)F)ccc1C(F)(F)F)C2 (stereo not drawn) [Compound 16, 7-{[2,5-Bis(trifluoromethyl)phenyl]sulfonyl}-2,7-diazaspiro[4.5]decan-1-one]
9 | ≥ 31.6 | Cc1ccc(S(=O)(=O)N2CCCC3(CCNC3=O)C2)cc1C(F)(F)F (stereo not drawn) [Compound 23, 7-{[4-Methyl-3-(trifluoromethyl)phenyl]sulfonyl}-2,7-diazaspiro[4.5]decan-1-one]
10 | ≥ 31.6 | Cc1cc(C(F)(F)F)cc(S(=O)(=O)N2CCCC3(CCNC3=O)C2)c1 (stereo not drawn) [Compound 25, 7-{[3-Methyl-5-(trifluoromethyl)phenyl]sulfonyl}-2,7-diazaspiro[4.5]decan-1-one]
11 | ≥ 31.6 | Cc1ccc(S(=O)(=O)N2CCCC3(CCNC3=O)C2)c(C(F)(F)F)c1 (stereo not drawn) [Compound 30, 7-{[4-Methyl-2-(trifluoromethyl)phenyl]sulfonyl}-2,7-diazaspiro[4.5]decan-1-one]
12 | ≥ 31.6 | CN1CCCC2(CCCN(S(=O)(=O)c3ccc(C(F)(F)F)cc3)C2)C1=O (stereo not drawn) [Compound 5, 2-Methyl-8-{[4-(trifluoromethyl)phenyl]sulfonyl}-2,8-diazaspiro[5.5]undecan-1-one]
13 | ≥ 31.6 | CN1CCC2(CCCN(S(=O)(=O)c3ccc(C(F)(F)F)cc3)C2)C1=O (stereo not drawn) [Compound 2, 2-Methyl-7-{[4-(trifluoromethyl)phenyl]sulfonyl}-2,7-diazaspiro[4.5]decan-1-one]
14 | ≥ 31.6 | Cc1ccc(S(=O)(=O)N2CCCC3(CCNC3=O)C2)c(C)c1 (stereo not drawn) [Compound 7, 7-[(2,4-Dimethylphenyl)sulfonyl]-2,7-diazaspiro[4.5]decan-1-one]
15 | ≥ 31.6 | O=C1NCCC12CCCN(S(=O)(=O)c1cc(C(F)(F)F)cc(C(F)(F)F)c1)C2 (stereo not drawn) [Compound 8, 7-{[3,5-Bis(trifluoromethyl)phenyl]sulfonyl}-2,7-diazaspiro[4.5]decan-1-one]
16 | ≥ 31.6 | O=C1NCCC12CCCN(S(=O)(=O)c1ccc(OC(F)(F)F)c(Cl)c1)C2 (stereo not drawn) [Compound 20, 7-({3-Chloro-4-[(trifluoromethyl)oxy]phenyl}sulfonyl)-2,7-diazaspiro[4.5]decan-1-one]
17 | ≥ 31.6 | O=C1NCCCC12CCCN(S(=O)(=O)c1cc(C(F)(F)F)ccc1C(F)(F)F)C2 (stereo not drawn) [Compound 18, 8-{[2,5-Bis(trifluoromethyl)phenyl]sulfonyl}-2,8-diazaspiro[5.5]undecan-1-one]
18 | ≥ 31.6 | O=C1NCCC12CCCN(S(=O)(=O)c1cccc(C(F)(F)F)c1)C2 (stereo not drawn) [Compound 9, 7-{[3-(Trifluoromethyl)phenyl]sulfonyl}-2,7-diazaspiro[4.5]decan-1-one]
19 | ≥ 31.6 | Cc1ccc(S(=O)(=O)N2CCCC3(CCCNC3=O)C2)cc1 (stereo not drawn) [Compound 35, 8-[(4-Methylphenyl)sulfonyl]-2,8-diazaspiro[5.5]undecan-1-one]
20 | ≥ 31.6 | Cc1ccc(C(F)(F)F)cc1S(=O)(=O)N1CCCC2(CCNC2=O)C1 (stereo not drawn) [Compound 26, 7-{[2-Methyl-5-(trifluoromethyl)phenyl]sulfonyl}-2,7-diazaspiro[4.5]decan-1-one]
21 | ≥ 31.6 | O=C1NCCCC12CCCN(S(=O)(=O)c1cc(C(F)(F)F)cc(C(F)(F)F)c1)C2 (stereo not drawn) [Compound 27, 8-{[3,5-Bis(trifluoromethyl)phenyl]sulfonyl}-2,8-diazaspiro[5.5]undecan-1-one]
22 | ≥ 31.6 | O=C1NCCCC12CCCN(S(=O)(=O)c1cccc(C(F)(F)F)c1)C2 (stereo not drawn) [Compound 12, 8-{[3-(Trifluoromethyl)phenyl]sulfonyl}-2,8-diazaspiro[5.5]undecan-1-one]
23 | ≥ 31.6 | Cc1ccc(S(=O)(=O)N2CCCC3(CCNC3=O)C2)c(OC(F)(F)F)c1 (stereo not drawn) [Compound 24, 7-({4-Methyl-2-[(trifluoromethyl)oxy]phenyl}sulfonyl)-2,7-diazaspiro[4.5]decan-1-one]
24 | ≥ 31.6 | COc1ccc(C(F)(F)F)cc1S(=O)(=O)N1CCCC2(CCNC2=O)C1 (stereo not drawn) [Compound 32, 7-{[2-(Methyloxy)-5-(trifluoromethyl)phenyl]sulfonyl}-2,7-diazaspiro[4.5]decan-1-one]
25 | ≥ 31.6 | O=C1NCCC12CCCN(S(=O)(=O)c1ccc(OC(F)(F)F)cc1)C2 (stereo not drawn) [Compound 6, 7-({4-[(Trifluoromethyl)oxy]phenyl}sulfonyl)-2,7-diazaspiro[4.5]decan-1-one]
26 | ≥ 31.6 | O=C1NCCC12CCCN(S(=O)(=O)c1cc(Cl)cc(Cl)c1)C2 (stereo not drawn) [Compound 19, 7-[(3,5-Dichlorophenyl)sulfonyl]-2,7-diazaspiro[4.5]decan-1-one]
27 | ≥ 31.6 | O=C1NCCCC12CCCN(S(=O)(=O)c1cccc(OC(F)F)c1)C2 (stereo not drawn) [Compound 31, 8-({3-[(Difluoromethyl)oxy]phenyl}sulfonyl)-2,8-diazaspiro[5.5]undecan-1-one]
28 | ≥ 31.6 | O=C1NCCC12CCCN(S(=O)(=O)c1cccc(OC(F)F)c1)C2 (stereo not drawn) [Compound 33, 7-({3-[(Difluoromethyl)oxy]phenyl}sulfonyl)-2,7-diazaspiro[4.5]decan-1-one]
29 | ≥ 31.6 | O=C1NCCC12CCCN(S(=O)(=O)c1cc(F)cc(C(F)(F)F)c1)C2 (stereo not drawn) [Compound 14, 7-{[3-Fluoro-5-(trifluoromethyl)phenyl]sulfonyl}-2,7-diazaspiro[4.5]decan-1-one]
30 | ≥ 31.6 | O=C1NCCCC12CCCN(S(=O)(=O)c1cc(F)cc(C(F)(F)F)c1)C2 (stereo not drawn) [Compound 17, 8-{[3-Fluoro-5-(trifluoromethyl)phenyl]sulfonyl}-2,8-diazaspiro[5.5]undecan-1-one]

Reference: patent US20130109711A1, “NOVEL COMPOUNDS” (priority 2010, published 2013)
